SMILES	melting point
O=C1C2=C(C=C3OCCC13)CCCO2 (configuration not stated)	101 °C
O=C(O)c1cnc2cc(OCc3ccccc3)c(OCc3ccccc3)cn2c1=O	208 °C
Cn1c(C(F)(F)F)cc(=O)n(-c2ccc3snc(C4OCC5(CO4)CO5)c3c2)c1=O (configuration not stated)	203 to 206 °C
N#CC=CNc1ccnc(-c2ccncc2)n1	253 to 255 °C
CC(=O)c1c(S(=O)(=O)C(F)(F)F)c(C#N)nn1-c1c(Cl)cc(C(F)(F)F)cc1Cl	161 °C
CC(=O)OC1CC2(C)C(C(C)=O)=CCC2C2CCC3=CC(=O)C=CC3(C)C12F (configuration not stated)	202 to 203 °C
CSc1ncc2c(n1)N(Cc1ccc(F)c(F)c1)c1ccccc1-n1nnnc1-2	281 to 283 °C
COc1ccc(NC(=O)c2nc3c(s2)C(=O)C=C(NCCCN(C)CCCNC2=CC(=O)c4sc(C)nc4C2=O)C3=O)cc1	141 to 142 °C
O=C(O)C=C=Cc1ccc(C2CCCCC2)cc1	126 to 129 °C
CCOC(=O)c1ccc(COCc2csc3nc(C(=O)NCc4cccc(OC)c4)[nH]c(=O)c23)cc1	173 °C
O=C1OCCC12Oc1ccccc1C2=O (configuration not stated)	111 to 112 °C
Cc1occc1C(=O)Nc1ccc(C(=O)N2Cc3ccccc3Cc3ccccc32)cc1	202 to 204 °C
O=C(NNC(=O)c1occ(-c2ccccc2)c1-c1ccccc1)c1ccc(O)c(I)c1	171 to 174 °C
NC(Cc1cccc(O)c1)c1ccccc1 (configuration not stated)	179 to 181 °C
OCCN1CCN(C(c2ccccc2)(c2ccccc2)c2ccccc2)CC1	82 °C
CCCCCC(C)C(C)c1cc(O)c2c(c1)OC(C)(C)C1=C2CN(CC(=O)NC(N)=O)CC1 (configuration not stated)	131 to 133 °C
CCOc1ccccc1COc1ccc2c(c1)C=C(C(=O)Nc1ccc(CN(C)C3CCOCC3)cc1)CCS2(=O)=O	211 to 214 °C
CCCCC1Cc2c(c3cccnc3n(-c3ccc(C)cc3)c2=O)O1 (configuration not stated)	282 to 284 °C
CC(C)C(=O)NCC(C)(C)N	134 to 138 °C
CC(C)Cn1c(=O)n(C)c(=O)c2c(SCCCC#N)n(Cc3cccc4ccccc34)cc21	127 to 128 °C
Cc1cnc(N2C(=O)C(O)=C(C(=O)c3ccc(C(C)C)cc3)C2c2ccc(OC(F)(F)F)cc2)s1 (configuration not stated)	243 to 244 °C
COc1cccc(OC2COc3ccc(OCc4ccccc4)cc3C2=O)c1 (configuration not stated)	98 to 100 °C
O=C(NCCCCCCCCF)N1CCC(Nc2ccc(CCNC[C@H](O)COc3ccc(O)cc3)cc2)CC1	78 to 80 °C
C=Cc1ccc(CN2CCNCCN(Cc3ccc(C=C)cc3)CC2)cc1	162 to 164 °C
N#Cc1ccc(C=CC(=O)C2CC2)cc1	104 °C

SMILES	melting point
O=C1CCC(N2Cc3c(OCc4nc5cc(CN6CCOCC6)ccc5s4)cccc3C2=O)C(=O)N1 (configuration not stated)	228 to 230 °C
CCCCCCCCCCCCCCCc1cccc(OC)c1C(=O)O	65 to 72 °C
Cc1ccccc1OCC1CO1 (configuration not stated)	114 to 116 °C
CC(N)c1c[nH]c(-c2ccccc2)n1 (configuration not stated)	30 °C
CC(C)(C)NC(=NC#N)Nc1cccnc1	205 to 206 °C
O=C(NC1CCCCC1)NC1N=C(C2CCCCC2)c2ccccc2N(CC(=O)N2CC3CCC(CC3)C2)C1=O (racemic)	195 to 197 °C
O=CNc1ccc(OCCNCC(O)c2ccc(OCc3ccccc3)cc2)cc1 (configuration not stated)	152 °C
CC=CCn1c(C)c(C)c2cnnc(NCc3ccc(F)cc3)c21	135 to 138 °C
O=c1cc(CCN2CCC(c3c[nH]c4ccccc34)CC2)c2cc([N+](=O)[O-])ccc2[nH]1	251 to 253 °C
Cc1[nH]cc2c(=O)n(-c3ccc(Cl)cc3)nc-2c1-c1ccc(-c2cccnc2)cc1	308 to 309 °C
OCCc1nccn1CCCc1ccc(OCc2coc(/C=C/c3c(F)cccc3F)n2)cc1	106 to 107 °C
CCOC(=O)CCc1ccc(SCc2coc(/C=C/c3ccccc3)n2)cc1	77 to 78 °C
CC(C(=O)O)c1cccc2c(-c3ccccc3)onc12 (configuration not stated)	140 to 144 °C
CN1C(=O)CC[C@]2(C)c3ccc(-c4cccnc4)cc3CC[C@@H]12	135 °C
CN(C(=S)SC(C[N+](=O)[O-])c1ccccc1)c1ccccc1 (configuration not stated)	111 to 116 °C
Cc1sc2ncc(C(O)CC(O)c3ccccc3)n2c1C (configuration not stated)	152 to 153 °C
Cc1ccc(SCc2ccc(OC(F)(F)F)cc2)cc1	74 to 76 °C
c1cnc(NCc2ccc(-c3n[nH]c4c3Cc3ccccc3-4)s2)nc1	232 to 233 °C
O=C(c1c(F)cccc1F)C1CC1c1ccc(Br)cc1 (configuration not stated)	64 to 65 °C
CCCn1nc(C(F)(F)CC)nc1Cc1ccc(-c2ccccc2-c2nnn[nH]2)nc1	142 to 144 °C
Nc1nc2cccnc2c2c1ncn2Cc1cc(-c2ccc(F)cc2)no1	265 to 266 °C
OC1CCc2c(Br)cccc21 (single isomer, unassigned; (-))	81 °C
N=C(NCCCn1cc(C2=CC(=O)NC2=O)c2ccccc21)c1ccc(O)cc1	> 300 °C
N#CC(C(N)=O)c1ccccc1 (configuration not stated)	148 to 150 °C

Results, then the molecule that gave them:

melting point	SMILES
147 to 150 °C	CN(C)c1cc(C(O)c2ccccc2)c([N+](=O)[O-])cc1[N+](=O)[O-] (configuration not stated)
99 to 104 °C	CS(=O)(=O)OCC(O)(CC(Cl)(Cl)Cl)c1cc(Cl)cc(Cl)c1 (configuration not stated)
176 to 178 °C	COc1nn(-c2cccc(Nc3nccs3)c2)c(=O)n(Cc2ccc(Cl)cc2)c1=O
321 to 324 °C	COc1ccc2[nH]c3c(c2c1)C[C@@]1(C)C(=O)N(CCn2ccnc2)C(=O)N1[C@@H]3c1cccc(O)c1 (racemic)
77 to 84 °C	CCOC(=O)N1CCN(CCCN2C(=O)c3ccccc3C2=O)CC1
159 to 161 °C	CCOc1ccc(-c2c(Cl)c(CCl)nc3sc4c(c23)CCN(C(=O)OCc2ccccc2)C4)cc1
141 to 142 °C	Cc1cccc(C(=O)O)c1OC(=O)C=Cc1ccccc1
109 °C	COc1cccc2c(Oc3cc(-n4c(=O)cc(C(F)(F)F)n(C)c4=O)c(F)cc3C#N)cccc12
109 to 110 °C	Clc1ccc(-c2nc(COCc3ccccc3)ns2)nn1
173 °C	CCOC(=O)c1nn(-c2ccc([N+](=O)[O-])cc2)c2c1CCCC2
122 to 123 °C	CCCCN(CCCC)CCN=c1sc2ccccc2s1
82 to 88 °C	CCOc1c(Br)ccc(C(=O)OC)c1N(C)S(C)(=O)=O
> 250 °C	CCc1nnc2c(O)nc3cc(OC)ccc3n12
197 to 198 °C	CCOC(=O)c1c(CCl)nc2cc3c(cc2c1-c1ccc(OC)c(OC)c1)OCCO3
188 to 190 °C	Clc1cc(CC2(Cc3ccnc(Cl)c3)c3ccccc3-c3ncccc32)ccn1
165 to 168 °C	CC(C)(C)c1cc2c(c(C(C)(C)C)c1)OC(=O)C2=O
200 to 202 °C	Cc1nccc(N2CCC(C(=O)N3CCN(S(=O)(=O)c4ccc(Br)cc4)CC3)CC2)n1
154 to 156 °C	Cc1ccc(NC(=O)c2cc(Cl)ccc2NCC2CCN(C3CCS(=O)(=O)CC3)CC2)nc1
95.5 to 97 °C	CCOC(=O)CC(NC(=O)c1ccc(F)cc1)C(=O)c1ccco1 (configuration not stated)
183 to 184 °C	CCn1cc(C(=O)NCc2ccc(Cl)cc2)c(=O)c2ccsc21
258 to 260 °C	O=C(O)c1cccc(-c2ccc3ncn(Cc4ccc(Cl)cc4Cl)c3n2)c1
154 to 155 °C	NCCC(O)(c1ccc(Cl)cc1)c1ccc(-c2ccc(Br)cc2)cc1 (configuration not stated)
256 to 260 °C	O=C(O)c1cn(-c2ccc(F)cc2F)c2c(F)c(N3Cc4cccc(Cl)c4C3)c(F)cc2c1=O
188 to 190 °C	COc1ccc(O)c(Cc2cccc(C(F)(F)F)c2)c1

melting point	SMILES
110 to 111 °C	CCOC(=O)c1cnn2c(C=O)c(Cc3cccc(F)c3C)c(-c3ccccc3)c2c1Cl
87 to 88 °C	COc1cccc2c1OCN(CCc1ccc(Cl)cc1)C2
73 to 76 °C	O=C(OCc1cc(F)nc(F)c1F)c1ccccc1
67 to 73 °C	Cc1cc(C)cc(CCCn2c(=O)c3c(N4CCN(C)CC4)cc(Cl)cc3n(Cc3ccccc3)c2=O)c1
147 to 150 °C	COC1CCN(c2cc(NC(=O)OC(C)(C)C)c([N+](=O)[O-])cc2C#Cc2ccccc2)CC1
198 to 200 °C	CC1=C(C(=O)OC(C)C)C(c2cccc(Cl)c2)NC(=O)N1C(=O)NC(C)c1ccccc1 (configuration not stated)
86 to 87.5 °C	O[C@@H]1CN(Cc2ccccc2)C[C@@H]1Oc1cccc(Cl)c1 (relative stereo)
151 to 154 °C	CN(C)CCc1cccc2ccc(-c3ccccc3CNS(C)(=O)=O)cc12
108 °C	Nc1ccc(S(=O)(=O)C(F)(F)F)c2sc3ccccc3c12
120 to 129 °C	COc1cc(OC)nc(NC(=O)NS(=O)(=O)c2c(OC)ccc3snnc23)n1
172 to 174 °C	CN1C(=O)C(c2ccc(OC(F)F)cc2)(c2cccc(C3CC(=O)C3(C)C)c2)N=C1N (configuration not stated)
87 to 89 °C	CN(CCO)Cc1cc(C(=O)c2ccccc2F)cc(C(C)(C)C)c1O
78 to 80 °C	COC(=O)c1ccc(C(=O)N(C)c2ccccc2)cc1
150 °C	N#Cc1coc2c(Cl)cc(Cl)cc2c1=O
225 °C	CC(C)c1ccc(S(=O)(=O)c2ccccc2)cc1S(=O)(=O)NC1CCN(C(=O)c2ccccc2)CC1
156 to 157 °C	Cc1nc(Cn2c(=O)sc3cc(F)c(N)cc32)no1
292 to 293 °C	COc1ccc(C(=O)Nc2c(Cl)cncc2Cl)c2[nH]cnc12
166 to 168 °C	COc1cnn([C@@H]2C[C@H](O)[C@@H](O)[C@H]2O)c(=O)c1Cl (racemic)
222 to 223 °C	CC(C)(C)OC(=O)N1CCC(Oc2ccc(-c3cn[nH]c(=O)c3)cc2)CC1
154 to 158 °C	O=C(O)CCCCCCCC(=O)c1c(-c2ccc(O)cc2)sc2cc(O)ccc12
117 to 118 °C	CCOC(=O)c1nnc(-c2ccc(Cl)cc2)o1
100 to 102 °C	OC(CCN1CCN(c2ccccc2)CC1)COc1ccccc1Cl (configuration not stated)
70 to 73 °C	CSCC(C)C(=O)N(C)c1sc(-c2cccnc2)nc1Cl (configuration not stated)
211 to 213 °C	Nc1ncnc2c1ncn2OCCSCP(=O)(O)O

From a melting point compilation (Tetko et al.; mined from patent text by program, amines drawn as free bases though some values may be those of a salt)
